Reference: patent publication US20080096905A1, “Process For Preparing Pyrido[2,3-D]Pyrimidin-7-One And 3,4-Dihydropyrimido{4,5-D}Pyrimidin-2(1H)-One Derivatives” (Glaxo Group Limited, priority 2005, published 2008)

Row | SMILES | melting point [°C]
1 | CSc1nc(-c2cc(C(=O)N(C)C)ccc2C)c2c(n1)N(c1c(F)cccc1F)C(=O)NC2 [Example 73, 3-[8-(2,6-difluorophenyl)-2-(methylthio)-7-oxo-5,6,7,8-tetrahydropyrimido[4,5-d]pyrimidin-4-yl]-N,N,4-trimethylbenzamide] | 144 to 147
2 | Cc1c(F)cc(C(=O)NC2CC2)cc1-c1nc(NC(CO)CO)nc2c1ccc(=O)n2-c1c(F)cccc1F [Example 49, N-cyclopropyl-3-(8-(2,6-difluorophenyl)-2-{[2-hydroxy-1-(hydroxymethyl)ethyl]amino}-7-oxo-7,8-dihydropyrido[2,3-d]pyrimidin-4-yl)-5-fluoro-4-methylbenzamide] | 214.2 to 217.5
